A word on the pIC50: it is −log10 of the IC50, conventionally taken in molar units.

pIC50: −log10 of the molar value.

These results are taken from ChEMBL document CHEMBL5725619, “Substituted oxopyridine derivatives” (2018).

The assay is described as follows: Plasma Kallikrein Assay: Test substances are dissolved in dimethyl sulphoxide and serially diluted in dimethyl sulphoxide (3000 μM to 0.0078 μM; resulting final concentrations in the test: 50 μM to 0.00013 μM). 1 μl of the diluted substance solutions is placed into each of the wells of white microtitre plates from Greiner (384 wells). 20 μl of assay buffer (50 mM Tris/HCl pH 7.4; 100 mM sodium chloride solution; 5 mM of calcium chloride solution; 0.1% of bovine serum albumin) and 20 μl of plasma kallikrein from Kordia (0.6 nM in assay buffer) are then added successively. After 15 min of incubation, the enzyme reaction is started by addition of 20 μl of the substrate H-Pro-Phe-Arg-AMC dissolved in assay buffer (10 μM in assay buffer) from Bachem, the mixture is incubated at room temperature (22° C.) for 30 min and fluorescence is then measured (excitation: 360 nm, emission: 460 nm). The measured emissions of the test batches with test substance are compared to those of control batches without test substance (only dimethyl sulphoxide instead of test substance in dimethyl sulphoxide), and IC50 values are calculated from the concentration/activity relationships.

For the compound `COCCC(C(=O)Nc1cc(F)c(C(N)=O)s1)n1cc(OC)c(-c2cc(Cl)ccc2C#N)cc1=O` (stereo unspecified), the pIC50 is 7.00.
